In brackets after ≈: the same amount, converted by molar mass.
Key:
[1] = system: Enterococcus faecalis (ATCC 29212); assay: Antibiotic susceptibility by glucose consumption in culture medium, blood culture bottle inoculum (Example 1); format: cell-based; conditions: for Glucose concentration t=0: 0 minutes; for Glucose concentration t=60: 60 minutes; for Glucose concentration t=120: 120 minutes; for Glucose concentration t=180: 180 minutes; for dC/dT: rate of change in glucose concentration; for Glucose concentration t=240: 240 minutes;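 as to dC/dT: rate calculated between the 60 and 180 min readings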
Method: (§1) Strains of Escherichia coli (ATCC 25922), Enterococcus faecalis (ATCC 29212) and Staphylococcus aureus (ATCC 29213) were inoculated in blood culture bottles (SVA, Uppsala, Sweden) and cultivated according to the manufacturer's instructions until positive.
(§2) Medium from each blood culture bottle was diluted 1:100 with cation adjusted Mueller-Hinton broth (SVA, Uppsala, Sweden) supplemented with glucose to a concentration of 1.0 mg/mL.
(§3) Table 1: Concentrations of antibiotic agents are given in µg/mL.
(§4) Glucose concentrations were measured at 0, 60, 120, 180, and 240 minutes using a WaveSense Jazz glucometer (AgaMatrix, Inc., Salem, NH, USA) with accompanying test strips.
(§5) Susceptibility scores corresponding to MIC values were calculated as described above. A 80% threshold was applied, i.e. the lowest concentration of antibiotic that entailed a rate of change in glucose concentration that was equal to or less than 80% of the reference was selected as the Minimal Inhibitory Concentration. The rate of change was calculated between the measurements at 60 and 180 minutes.

[2] = system: Staphylococcus aureus (ATCC 29213); assay: as above; format: cell-based; conditions: for Glucose concentration t=60: 60 minutes; for Glucose concentration t=120: 120 minutes; for Glucose concentration t=180: 180 minutes; for Glucose concentration t=240: 240 minutes; for dC/dT: rate of change in glucose concentration
Method: as §1, §2, §3, §4, §5

[3] = system: Staphylococcus aureus ATCC 29213; conditions: S.aureus, cited from earlier work
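For dC/dT in this document: rate calculated between the 60 and 180 min readings.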

## CN[C@H](CC(C)C)C(=O)N[C@H]1C(=O)N[C@@H](CC(N)=O)C(=O)N[C@H]2C(=O)N[C@H]3C(=O)N[C@H](C(=O)N[C@H](C(=O)O)c4cc(O)cc(O)c4-c4cc3ccc4O)[C@H](O)c3ccc(c(Cl)c3)Oc3cc2cc(c3O[C@@H]2O[C@H](CO)[C@@H](O)[C@H](O)[C@H]2O[C@H]2C[C@](C)(N)[C@H](O)[C@H](C)O2)Oc2ccc(cc2Cl)[C@H]1O [Vancomycin]
[1]; [Ab] 0,5 µg/mL
  F=the rate of change in glucose concentration in relation to the reference: 82%
  Glucose concentration t=0: 154
  Glucose concentration t=60: 155
  Glucose concentration t=120: 148
  Glucose concentration t=180: 96
  dC/dT: 30
[1]; [Ab] 0,25 µg/mL
  F=the rate of change in glucose concentration in relation to the reference: 82%
  Glucose concentration t=0: 143
  Glucose concentration t=60: 155
  Glucose concentration t=120: 146
  Glucose concentration t=180: 96
  dC/dT: 30
[1]; [Ab] 1 µg/mL
  F=the rate of change in glucose concentration in relation to the reference: 75%
  Glucose concentration t=0: 151
  Glucose concentration t=60: 164
  Glucose concentration t=120: 153
  Glucose concentration t=180: 110
  dC/dT: 27
[1]; [Ab] 2 µg/mL
  F=the rate of change in glucose concentration in relation to the reference: 29%
  Glucose concentration t=0: 147
  Glucose concentration t=60: 160
  Glucose concentration t=120: 152
  Glucose concentration t=180: 139
  Glucose concentration t=240: 94
  dC/dT: 11
[1]; [Ab] 4 µg/mL
  F=the rate of change in glucose concentration in relation to the reference: 19%
  Glucose concentration t=0: 147
  Glucose concentration t=60: 162
  Glucose concentration t=120: 153
  Glucose concentration t=180: 148
  Glucose concentration t=240: 149
  dC/dT: 7
[1]; [Ab] 8 µg/mL
  F=the rate of change in glucose concentration in relation to the reference: 7%
  Glucose concentration t=0: 150
  Glucose concentration t=60: 156
  Glucose concentration t=120: 146
  Glucose concentration t=180: 151
  Glucose concentration t=240: 145
  dC/dT: 3
[1]; [Ab] 0,125 µg/mL
  F=the rate of change in glucose concentration in relation to the reference: 83%
  Glucose concentration t=0: 148
  Glucose concentration t=60: 154
  Glucose concentration t=120: 149
  Glucose concentration t=180: 94
  dC/dT: 30
[1]; [Ab] 0,0625 µg/mL
  F=the rate of change in glucose concentration in relation to the reference: 93%
  Glucose concentration t=0: 145
  Glucose concentration t=60: 156
  Glucose concentration t=120: 139
  Glucose concentration t=180: 89
  dC/dT: 34
[2]; [Ab] 0,5 µg/mL
  F=the rate of change in glucose concentration in relation to the reference: 84%
  Glucose concentration t=60: 156
  Glucose concentration t=120: 142
  Glucose concentration t=180: 100
  Glucose concentration t=240: 51
  dC/dT: 28
[2]; [Ab] 0,25 µg/mL
  F=the rate of change in glucose concentration in relation to the reference: 75%
  Glucose concentration t=60: 142
  Glucose concentration t=120: 133
  Glucose concentration t=180: 92
  Glucose concentration t=240: 42
  dC/dT: 25
[2]; [Ab] 1 µg/mL
  F=the rate of change in glucose concentration in relation to the reference: 96%
  Glucose concentration t=60: 161
  Glucose concentration t=120: 140
  Glucose concentration t=180: 97
  Glucose concentration t=240: 51
  dC/dT: 32
[2]; [Ab] 2 µg/mL
  F=the rate of change in glucose concentration in relation to the reference: 88%
  Glucose concentration t=60: 160
  Glucose concentration t=120: 143
  Glucose concentration t=180: 101
  Glucose concentration t=240: 53
  dC/dT: 30
[2]; [Ab] 4 µg/mL
  F=the rate of change in glucose concentration in relation to the reference: 39%
  Glucose concentration t=60: 157
  Glucose concentration t=120: 147
  Glucose concentration t=180: 131
  Glucose concentration t=240: 107
  dC/dT: 13
[2]; [Ab] 8 µg/mL
  F=the rate of change in glucose concentration in relation to the reference: 6%
  Glucose concentration t=60: 150
  Glucose concentration t=120: 150
  Glucose concentration t=180: 146
  Glucose concentration t=240: 149
  dC/dT: 2
[2]; [Ab] 16 µg/mL
  F=the rate of change in glucose concentration in relation to the reference: 7%
  Glucose concentration t=60: 157
  Glucose concentration t=120: 153
  Glucose concentration t=180: 152
  Glucose concentration t=240: 149
  dC/dT: 3
[2]; [Ab] 32 µg/mL
  F=the rate of change in glucose concentration in relation to the reference: 13%
  Glucose concentration t=60: 157
  Glucose concentration t=120: 140
  Glucose concentration t=180: 148
  Glucose concentration t=240: 146
  dC/dT: 5
[3]; range obtained by EUCAST from ISO 20776-1: 2006
  MIC EUCAST, range in parentheses: 0.5 to 2 µg/mL
[3]; reference MIC value, EUCAST QC tables Version 7.0, 2017
  MIC EUCAST: 1 µg/mL (≈ 0.69 µM)

From patent EP3717657B1, “A SYSTEM FOR ASSESSING MICROBIAL SUSCEPTIBILITY TO ANTIBIOTIC AGENTS” (Ascilion AB, priority 2017, dated 2019)
